Source: patent publication US6579899B1, “Composition for treatment of stress” (Massachusetts Institute of Technology, priority 1998, dated 2003)
Structures can show the parent of a compound that is named as a salt.

Experiments:
[1] = tested on: obese, stressed patients; assay: CES-D test of current levels of emotional distress in patients; type: in vivo, human
Text: (§1) A subgroup of obese individuals is identified, which individuals describe themselves as being unable to control their eating and who attempt to continue on a weight-reducing diet when experiencing emotional distress. […]
(§2) Objective measurements of emotional distress are made in some patients using the CES-D (Center for […] Depression Form) test, which measures current levels of emotional distress (Radloff, et al., The CES-D Scale: A Self Report Depression Scale for Research in the General Population Applied Psychological Measurement 1: 385-401, 1977); and the POMS (Profile of Mood States test, that assesses tension, depression, anger and confusion (McNair, et al., Profile of Mood States Manual;San Diego: Educational and Industrial Testing Service, 1971); both of these references are hereby incorporated by reference in their entirety. These tests are also given monthly during the treatment period. At the same time, patients also complete questionnaires that ask the patients to rate their appetite and hunger, and also to rate their tendency to eat in response to a variety of emotional and stressful triggers. The patients are also weighed monthly.

[2] = tested on: obese, stressed patients; assay: questionnaire rating appetite and hunger; type: in vivo, human; design: Appetite and Cravings: scale not given here
Text: as §1, §2

[3] = tested on: obese, stressed patients; assay: questionnaire rating tendency to eat in response to emotional and stressful triggers; type: in vivo, human; design: Emotional Triggers: scale not given here
Text: as §1, §2

[4] = tested on: Sprague-Dawley rats; assay: stress related eating (clamp tightened on the tail) in rats; type: in vivo, rat; conditions: for Stress Eating, relative amount with 0 mg/kg as 100% / Stressed Rats, average amount of food consumed per rat / Stress Eating / Control Rats, average amount of food consumed per rat: 8 hours; for Stressed Rats, average amount of food consumed per rat: clamp tightened on the tail; for Stress Eating: stressed minus control rats; for stress-related eating: stressed rats, 1-10 mg/kg; for Control Rats, average amount of food consumed per rat: untightened clamp
Method: The effect of the hydrochloride salt of 6-chloro-2-(1-piperazinyl)pyrazine (MK-212, which is obtained from Merck & Co., Inc. Whitehouse Station, N.J.), on stress related eating in animals is determined through the observation of the effect of experimental compounds on stress-related eating in adult Sprague-Dawley rats. These rats are widely used as a recognized animal model useful in predicting the effect of serotoninergic drugs in humans.
In these experiments, a group of 5 adult female and 5 adult male Sprague-Dawley rats weighing between 200 and 250 grams each are used as control animals. An untightened clamp is placed on the tail of these animals. The untightened clamp provides the unstressed condition. Each animal is placed in an individual cage and allowed free access to food. The amount of food consumed is determined at 2, 4 and 8 hours after the initiation of the trial. A similar group of rats has a clamp tightened on the tail. The amount of food consumed by this stressed group of rats is shown in the 0 mg/kg column. […] similar groups of stressed rats are injected with 1, 2, 5, or 10 mg/kg body weight of MK-212 one hour before initiation of the experiment.
The relative amounts of stress eating with the amount at 0 mg/kg MK-212 as 100% is also shown in the Stress Eating row. The preferred daily dose of MK-212 is about 1 mg/kg body weight to about 10 mg/kg body weight.

[5] = 1 mg/kg injected one hour before
[6] = 2 mg/kg injected one hour before
[7] = 5 mg/kg injected one hour before
[8] = 10 mg/kg injected one hour before

Compound	Stress Eating, relative amount with 0 mg/kg as 100% ([4]; 1 mg/kg)	Stress Eating, relative amount with 0 mg/kg as 100% ([4]; 2 mg/kg)	Stress Eating, relative amount with 0 mg/kg as 100% ([4]; 5 mg/kg)	Stress Eating, relative amount with 0 mg/kg as 100% ([4]; 10 mg/kg)	Stressed Rats, average amount of food consumed per rat [4, 5]	Stressed Rats, average amount of food consumed per rat [4, 6]	Stressed Rats, average amount of food consumed per rat [4, 7]	Stressed Rats, average amount of food consumed per rat [4, 8]	Stress Eating ([4]; 1 mg/kg)	Stress Eating ([4]; 2 mg/kg)	Stress Eating ([4]; 5 mg/kg)	Stress Eating ([4]; 10 mg/kg)	stress-related eating [4]	Control Rats, average amount of food consumed per rat [4, 5]	Control Rats, average amount of food consumed per rat [4, 6]	Control Rats, average amount of food consumed per rat [4, 7]	Control Rats, average amount of food consumed per rat [4, 8]	other results
COCCCC/C(=N\OCCN)c1ccc(C(F)(F)F)cc1 [fluvoxamine maleate]	–	–	–	–	–	–	–	–	–	–	–	–	–	–	–	–	–	Mood Scores CES-D ([1]; patient three, 50 rising to 150 mg/day, Month 1, baseline 23): 26; Mood Scores CES-D ([1]; patient three, 50 rising to 150 mg/day, Month 2, baseline 23): 16; Mood Scores CES-D ([1]; patient three, 50 rising to 150 mg/day, Month 3, baseline 23): 15; Mood Scores CES-D ([1]; patient three, 50 rising to 150 mg/day, Month 4, baseline 23): 17; Appetite and Cravings ([2]; patient three, 50 rising to 150 mg/day, Month 1, baseline 18): 16; Appetite and Cravings ([2]; patient three, 50 rising to 150 mg/day, Month 2, baseline 18): 11; Appetite and Cravings ([2]; patient three, 50 rising to 150 mg/day, Month 3, baseline 18): 12; Appetite and Cravings ([2]; patient three, 50 rising to 150 mg/day, Month 4, baseline 18): 14; Emotional Triggers ([3]; patient three, 50 rising to 150 mg/day, Month 1, baseline 34): 27; Emotional Triggers ([3]; patient three, 50 rising to 150 mg/day, Month 2, baseline 34): 30; Emotional Triggers ([3]; patient three, 50 rising to 150 mg/day, Month 3, baseline 34): 20; Emotional Triggers ([3]; patient three, 50 rising to 150 mg/day, Month 4, baseline 34): 24
Cc1ccc2c(c1)-c1c(ccn1C[C@H](C)N)C2(C)C [Ro 60-175/ORG 35030, (S)-2-(4,4,7-trimethyl-1,4-dihydro-indol (1,2-B)pyrrol-1-yl)-1-methylethylamine]	(74%)	(4%)	(3%)	(1%)	3.66 g	1.43 g	1.30 g	1.16 g	2.38 g	0.13 g	0.10 g	0.03 g	reduces stress related eating	1.28 g	1.30 g	1.20 g	1.13 g	–
CN(C)CCC=C1c2ccccc2CCc2ccccc21 [amitriptyline hydrochloride]	–	–	–	–	–	–	–	–	–	–	–	–	–	–	–	–	–	Mood Scores CES-D ([1]; patient twelve, 75 then 100 mg/day, Month 1, baseline 29): 22; Mood Scores CES-D ([1]; patient twelve, 75 then 100 mg/day, Month 2, baseline 29): 20; Mood Scores CES-D ([1]; patient twelve, 75 then 100 mg/day, Month 3, baseline 29): 23; Mood Scores CES-D ([1]; patient twelve, 75 then 100 mg/day, Month 4, baseline 29): 18; Appetite and Cravings ([2]; patient twelve, 75 then 100 mg/day, Month 1, baseline 19): 16; Appetite and Cravings ([2]; patient twelve, 75 then 100 mg/day, Month 2, baseline 19): 8; Appetite and Cravings ([2]; patient twelve, 75 then 100 mg/day, Month 3, baseline 19): 13; Appetite and Cravings ([2]; patient twelve, 75 then 100 mg/day, Month 4, baseline 19): 8; Emotional Triggers ([3]; patient twelve, 75 then 100 mg/day, Month 1, baseline 25): 22; Emotional Triggers ([3]; patient twelve, 75 then 100 mg/day, Month 2, baseline 25): 13; Emotional Triggers ([3]; patient twelve, 75 then 100 mg/day, Month 3, baseline 25): 5; Emotional Triggers ([3]; patient twelve, 75 then 100 mg/day, Month 4, baseline 25): 3
(S)-2-(Chloro-5-fluoro-indol-1-yl)-1-methylethylamine [Ro 60-0332/ORG 35035]	(103%)	(28%)	(17%)	(13%)	4.87 g	2.19 g	1.83 g	1.74 g	3.58 g	0.99 g	0.60 g	0.46 g	reduces stress-related eating	1.29 g	1.20 g	1.21 g	1.28 g	–
